PMC7503500, “A Structure-Activity Relationship Comparison of Imidazodiazepines Binding at Kappa, Mu, and Delta Opioid Receptors and the GABAA Receptor” (Molecules, 2020)
“Also recorded” adds a separate entry of the source. Like-named read-outs stand apart in the source and are kept apart here.

Assays:
[1] = test system: synaptic benzodiazepine-sensitive receptors (BZR), GABAAR; assay: 3H-flunitrazepam binding, rat brain homogenate; settings: for BZR % (percent inhibition): at 10,000 nM; for Ki: read-out: BZR (Ki)
[2] = biological target: κ opioid receptor (KOR) (Homo sapiens, UniProt P41145); assay: Radioligand competition binding, KOR ([3H]-U69593), HEK293 cell homogenates; settings: for inhibition at 10 µM: read-out: KOR % (percent inhibition), at 10,000 nM; for inhibition at 10 µM / KOR % (percent inhibition): [3H]-U69593; for KOR affinity (in words): screening at 10,000 nM; for KOR % (percent inhibition): at 10,000 nM
[3] = biological target: δ opioid receptor (DOR) (Homo sapiens, UniProt P41143); assay: Radioligand competition binding, DOR ([3H]-DADLE), HEK293 cell homogenates; settings: for inhibition at 10 µM: read-out: DOR % (percent inhibition), at 10,000 nM; for DOR % (percent inhibition): at 10,000 nM
[4] = biological target: µ opioid receptor (MOR) (Homo sapiens, UniProt P35372); assay: Radioligand competition binding, MOR ([3H]-DAMGO), HEK293 cell homogenates; settings: [3H]-DAMGO; for inhibition at 10 µM: read-out: MOR % (percent inhibition), at 10,000 nM; for MOR % (percent inhibition): at 10,000 nM
[5] = read-out: KOR (Ki), [3H]-U69593, HEK293 homogenates

C[C@H]1N=C(c2ccccc2F)c2cc(Br)ccc2-n2cnc(C(=O)O)c21 [GL-II-93]
BZR % (percent inhibition) [1]: 73% | Ki [1]: 86 nM | inhibition at 10 µM [2]: 0% | KOR affinity (in words) [2]: No KOR affinity; also recorded: insignificant KOR affinity | inhibition at 10 µM [3]: 0% | inhibition at 10 µM [4]: 0%

C[C@H]1N=C(c2ccccc2F)c2cc(Br)ccc2-n2cnc(-c3cnco3)c21 [GL-III-36]
BZR % (percent inhibition) [1]: 86% | Ki [1]: 319 nM | KOR % (percent inhibition) [2]: 88% | Ki [2, 5]: 246 nM | DOR % (percent inhibition) [3]: 12% | MOR % (percent inhibition) [4]: 0%

CCOC(=O)c1ncn2c1[C@@H](C)N=C(c1ccccc1F)c1cc(C3CC3)ccc1-2 [GL-III-42]
BZR % (percent inhibition) [1]: 62% | Ki [1]: 726 nM | inhibition at 10 µM [2]: 86% | DOR % (percent inhibition) [3]: 13% | MOR % (percent inhibition) [4]: 0%

C[C@H]1N=C(c2ccccc2F)c2cc(Cl)ccc2-n2cnc(C(=O)O)c21 [GL-III-54]
BZR % (percent inhibition) [1]: 100% | Ki [1]: 42 nM | inhibition at 10 µM [2]: 22% | inhibition at 10 µM [3]: 0% | inhibition at 10 µM [4]: 0%

Cc1noc(-c2ncn3c2[C@@H](C)N=C(c2ccccc2F)c2cc(Br)ccc2-3)n1 [GL-III-60]
BZR % (percent inhibition) [1]: 100% | Ki [1]: 784 nM | KOR % (percent inhibition) [2]: 87% | Ki [2, 5]: 232 nM | DOR % (percent inhibition) [3]: 18% | MOR % (percent inhibition) [4]: 26%

Cc1noc(-c2ncn3c2[C@@H](C)N=C(c2ccccc2F)c2cc(C4CC4)ccc2-3)n1 [GL-III-63]
BZR % (percent inhibition) [1]: 28% | KOR % (percent inhibition) [2]: 78% | Ki [2, 5]: 678 nM | DOR % (percent inhibition) [3]: 31% | MOR % (percent inhibition) [4]: 8%

Cc1noc(-c2ncn3c2[C@@H](C)N=C(c2ccccn2)c2cc(C4CC4)ccc2-3)n1 [GL-III-64]
BZR % (percent inhibition) [1]: 92% | Ki [1]: 1490 nM | KOR % (percent inhibition) [2]: 60% | Ki [2, 5]: 2050 nM | DOR % (percent inhibition) [3]: 14% | MOR % (percent inhibition) [4]: 7%

C#Cc1ccc2c(c1)C(c1ccccc1F)=N[C@H](C)c1c(C(=O)NC(C)C)ncn1-2 [GL-III-66]
BZR % (percent inhibition) [1]: 88% | Ki [1]: 271 nM | Ki [2]: 233 nM | inhibition at 10 µM [2]: 63% | inhibition at 10 µM [3]: 0% | inhibition at 10 µM [4]: 0%

CCNC(=O)c1ncn2c1[C@@H](C)N=C(c1ccccc1F)c1cc(C3CC3)ccc1-2 [GL-III-68]
BZR % (percent inhibition) [1]: 100% | Ki [1]: 452 nM | Ki [2]: 150 nM | inhibition at 10 µM [2]: 88% | inhibition at 10 µM [3]: 10% | inhibition at 10 µM [4]: 0%

C[C@H]1N=C(c2ccccc2F)c2cc(Br)ccc2-n2cnc(C(=O)N(C)C)c21 [GL-III-69]
BZR % (percent inhibition) [1]: 100% | Ki [1]: 446 nM | Ki [2]: 511 nM | inhibition at 10 µM [2]: 75% | inhibition at 10 µM [3]: 10% | inhibition at 10 µM [4]: 0%

C[C@H]1N=C(c2ccccc2F)c2cc(C3CC3)ccc2-n2cnc(C(=O)N(C)C)c21 [GL-III-70]
BZR % (percent inhibition) [1]: 100% | Ki [1]: 3400 nM | Ki [2]: 800 nM | inhibition at 10 µM [2]: 68% | inhibition at 10 µM [3]: 50% | inhibition at 10 µM [4]: 0%

C#Cc1ccc2c(c1)C(c1ccccc1F)=N[C@H](C)c1c(-c3cnco3)ncn1-2 [GL-III-73]
BZR % (percent inhibition) [1]: 65% | Ki [1]: 602 nM | KOR % (percent inhibition) [2]: 74% | Ki [2, 5]: 449 nM | DOR % (percent inhibition) [3]: 4% | MOR % (percent inhibition) [4]: 12%

C[C@@H]1N=C(c2ccccc2F)c2cc(Br)ccc2-n2cnc(-c3cnco3)c21 [GL-III-76]
BZR % (percent inhibition) [1]: 100% | Ki [1]: 120 nM | KOR % (percent inhibition) [2]: 83% | Ki [2, 5]: 221 nM | DOR % (percent inhibition) [3]: 0% | MOR % (percent inhibition) [4]: 3%

C#Cc1ccc2c(c1)C(c1ccccc1F)=N[C@@H](C)c1c(-c3cnco3)ncn1-2 [GL-III-78]
BZR % (percent inhibition) [1]: 101% | Ki [1]: 261 nM | KOR % (percent inhibition) [2]: 74% | Ki [2, 5]: 451 nM | DOR % (percent inhibition) [3]: 9% | MOR % (percent inhibition) [4]: 10%

C#Cc1ccc2c(c1)C(c1ccccc1F)=NCc1c(-c3cnco3)ncn1-2 [KRM-II-18B]
BZR % (percent inhibition) [1]: 97% | Ki [1]: 38 nM | Ki [2]: 361 nM | inhibition at 10 µM [2]: 89% | inhibition at 10 µM [3]: 20% | inhibition at 10 µM [4]: 11%

Brc1ccc2c(c1)C(c1ccccc1)=NCc1c(-c3cnco3)ncn1-2 [KRM-II-73]
BZR % (percent inhibition) [1]: 97% | Ki [1]: 45 nM | Ki [2]: 736 nM | inhibition at 10 µM [2]: 83% | inhibition at 10 µM [3]: 32% | inhibition at 10 µM [4]: 11%

Cc1ncoc1-c1ncn2c1CN=C(c1ccccn1)c1cc(Br)ccc1-2 [KRM-II-81]
BZR % (percent inhibition) [1]: 86% | Ki [1]: 294 nM | inhibition at 10 µM [2]: 46% | KOR affinity (in words) [2]: insignificant KOR affinity | inhibition at 10 µM [3]: 15% | inhibition at 10 µM [4]: 7%

C#Cc1ccc2c(c1)C(c1ccccc1)=NCc1c(-c3cnco3)ncn1-2 [KRM-II-82]
BZR % (percent inhibition) [1]: 95% | Ki [1]: 96 nM | Ki [2]: 1200 nM | inhibition at 10 µM [2]: 78% | inhibition at 10 µM [3]: 20% | inhibition at 10 µM [4]: 5%

Brc1ccc2c(c1)C(c1ccccn1)=NCc1c(-c3cnco3)ncn1-2 [KRM-II-97]
BZR % (percent inhibition) [1]: 93% | Ki [1]: 140 nM | Ki [2]: 1960 nM | inhibition at 10 µM [2]: 62% | inhibition at 10 µM [3]: 8% | inhibition at 10 µM [4]: 18%

Cc1ncoc1-c1ncn2c1CN=C(c1ccccc1F)c1cc(Br)ccc1-2 [KRM-III-59]
BZR % (percent inhibition) [1]: 96% | Ki [1]: 20 nM | Ki [2]: 408 nM | inhibition at 10 µM [2]: 73% | inhibition at 10 µM [3]: 11% | inhibition at 10 µM [4]: 0%

C#Cc1ccc2c(c1)C(c1ccccc1F)=NCc1c(-c3ocnc3C)ncn1-2 [KRM-III-65]
BZR % (percent inhibition) [1]: 96% | Ki [1]: 45 nM | Ki [2]: 879 nM | inhibition at 10 µM [2]: 64% | inhibition at 10 µM [3]: 16% | inhibition at 10 µM [4]: 0%

Cc1ncoc1-c1ncn2c1CN=C(c1ccccc1)c1cc(Br)ccc1-2 [KRM-III-66]
BZR % (percent inhibition) [1]: 86% | Ki [1]: 49 nM | Ki [2]: 756 nM | inhibition at 10 µM [2]: 67% | inhibition at 10 µM [3]: 11% | inhibition at 10 µM [4]: 12%

C#Cc1ccc2c(c1)C(c1ccccn1)=NCc1c(-c3cnco3)ncn1-2 [KRM-III-67]
BZR % (percent inhibition) [1]: 71% | Ki [1]: 144 nM | inhibition at 10 µM [2]: 48% | inhibition at 10 µM [3]: 3% | inhibition at 10 µM [4]: 30%

C#Cc1ccc2c(c1)C(c1ccccn1)=NCc1c(-c3ocnc3C)ncn1-2 [KRM-III-79]
BZR % (percent inhibition) [1]: 81% | Ki [1]: 308 nM | inhibition at 10 µM [2]: 9% | inhibition at 10 µM [3]: 1% | inhibition at 10 µM [4]: 32%

C#Cc1ccc2c(c1)C(c1ccccn1)=NCc1c(C(=O)OC(C)C)ncn1-2 [MP-II-068]
BZR % (percent inhibition) [1]: 97% | Ki [1]: 42 nM | Affinity towards KOR as % of the GL-I-30-KOR binding affinity [2]: 4.9% | Ki [2]: 550 nM | inhibition at 10 µM [2]: 85% | inhibition at 10 µM [3]: 34% | inhibition at 10 µM [4]: 0%

C#Cc1ccc2c(c1)C(c1ccccc1F)=NCc1c(C(=O)OCc3ccccc3)ncn1-2 [MP-II-075]
BZR % (percent inhibition) [1]: 98% | Ki [1]: 21 nM | inhibition at 10 µM [2]: 84% | Ki [2, 5]: 547 nM | inhibition at 10 µM [3]: 16% | inhibition at 10 µM [4]: 0%

C#Cc1ccc2c(c1)C(c1ccccc1F)=N[C@H](C)c1c(C(=O)OC)ncn1-2 [MP-III-004]
BZR % (percent inhibition) [1]: 78% | Ki [1]: 445 nM | Ki [2]: 599 nM | inhibition at 10 µM [2]: 76% | inhibition at 10 µM [3]: 24% | inhibition at 10 µM [4]: 0%

C#Cc1ccc2c(c1)C(c1ccccc1F)=N[C@@H](C)c1c(C(N)=O)ncn1-2 [MP-III-018.B]
BZR % (percent inhibition) [1]: 97% | Ki [1]: 17 nM | Ki [2]: 2780 nM | inhibition at 10 µM [2]: 51% | inhibition at 10 µM [3]: 10% | inhibition at 10 µM [4]: 2%

C#Cc1ccc2c(c1)C(c1ccccc1F)=N[C@H](C)c1c(C(N)=O)ncn1-2 [MP-III-019.B]
BZR % (percent inhibition) [1]: 94% | Ki [1]: 54 nM | Ki [2]: 1530 nM | inhibition at 10 µM [2]: 62% | inhibition at 10 µM [3]: 0% | inhibition at 10 µM [4]: 2%

C#Cc1ccc2c(c1)C(c1ccccc1F)=N[C@@H](C)c1c(C(=O)OC)ncn1-2 [MP-III-021]
BZR % (percent inhibition) [1]: 88% | Ki [1]: 219 nM | Ki [2]: 122 nM | inhibition at 10 µM [2]: 93% | inhibition at 10 µM [3]: 22% | inhibition at 10 µM [4]: 0%

C#Cc1ccc2c(c1)C(c1ccccc1F)=N[C@H](C)c1c(C(=O)NC)ncn1-2 [MP-III-022]
BZR % (percent inhibition) [1]: 95% | Ki [1]: 83 nM | inhibition at 10 µM [2]: 80% | inhibition at 10 µM [3]: 22% | inhibition at 10 µM [4]: 3%

C#Cc1ccc2c(c1)C(c1ccccc1F)=N[C@@H](C)c1c(C(=O)NC)ncn1-2 [MP-III-023]
BZR % (percent inhibition) [1]: 97% | Ki [1]: 37 nM | Ki [2]: 119 nM | inhibition at 10 µM [2]: 91% | inhibition at 10 µM [3]: 16% | inhibition at 10 µM [4]: 0%

C#Cc1ccc2c(c1)C(c1ccccn1)=NCc1c(C(=O)OC)ncn1-2 [MP-III-024]
BZR % (percent inhibition) [1]: 81% | Ki [1]: 277 nM | inhibition at 10 µM [2]: 43% | inhibition at 10 µM [3]: 24% | inhibition at 10 µM [4]: 0%

COC(=O)c1ncn2c1[C@@H](C)N=C(c1ccccc1F)c1cc(Br)ccc1-2 [MP-III-058]
BZR % (percent inhibition) [1]: 86% | Ki [1]: 290 nM | Ki [2]: 237 nM | inhibition at 10 µM [2]: 84% | inhibition at 10 µM [3]: 4% | inhibition at 10 µM [4]: 0%
